Measurements as given in the supplement of paper PMC10307832.

How the values were obtained:
Test in all cases: relative viability (nuclei count vs DMSO), 5 days (fraction); higher = more cells survive
Masitinib + Dasatinib = compound: Cc1ccc(NC(=O)c2ccc(CN3CCN(C)CC3)cc2)cc1Nc1nc(-c2cccnc2)cs1 [Masitinib] + Cc1nc(Nc2ncc(C(=O)Nc3c(C)cccc3Cl)s2)cc(N2CCN(CCO)CC2)n1 [Dasatinib] (partner 0.075 µM)
In short: (§1)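 After 5 days of treatment, lung cancer cells in 1536-well plates were fixed and stained in a single step (final 0.05% Triton X-100, 1% formaldehyde, 1 ug/ml Hoechst) and their nuclei counted on 4× images. Treatment had been applied by pin tool the day after seeding as one drug alone or as a fixed anchor-drug dose with five library-drug doses (not always all listed) in √10 steps. Relative viability is the nuclei count of treated wells divided by that of vehicle wells, and values are medians of duplicate plates.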

[1] = compound: CC1=CC(=CC=C1)NC2=NC(=CS2)C3=CC=NC=C3 + C[C@]1(O)C[C@@H](c2nc(-c3ccc4ccc(-c5ccccc5)nc4c3)c3c(N)nccn32)C1 [Linsitinib] (partner 1 µM)
In short: as §1

[2] = compound: CC1=CC(=CC=C1)NC2=NC(=CS2)C3=CC=NC=C3 + CC(C)C[C@H](NC(=O)[C@H](Cc1ccccc1)NC(=O)c1cnccn1)B(O)O [Bortezomib] (partner 0.002 µM)
In short: as §1

Masitinib + Palbociclib = compound: Cc1ccc(NC(=O)c2ccc(CN3CCN(C)CC3)cc2)cc1Nc1nc(-c2cccnc2)cs1 [Masitinib] + CC(=O)c1c(C)c2cnc(Nc3ccc(N4CCNCC4)cn3)nc2n(C2CCCC2)c1=O [Palbociclib] (partner 0.5 µM)
In short: as §1

Cell Line	relative viability (Masitinib + Dasatinib; first compound 0.03162 µM)	relative viability (Masitinib + Dasatinib; first compound 0.3162 µM)	relative viability (Masitinib + Dasatinib; first compound 1 µM)	relative viability ([1]; first compound 0.08 µM)	relative viability ([1]; first compound 0.253 µM)	relative viability ([1]; first compound 0.8 µM)	relative viability ([1]; first compound 2.53 µM)	relative viability ([1]; first compound 8 µM)	relative viability ([2]; first compound 0.08 µM)	relative viability ([2]; first compound 0.253 µM)	relative viability ([2]; first compound 0.8 µM)	relative viability ([2]; first compound 2.53 µM)	relative viability ([2]; first compound 8 µM)	relative viability (Masitinib + Palbociclib; first compound 0.03162 µM)	relative viability (Masitinib + Palbociclib; first compound 0.1 µM)	relative viability (Masitinib + Palbociclib; first compound 0.3162 µM)	relative viability (Masitinib + Palbociclib; first compound 1 µM)	relative viability (Masitinib + Dasatinib; first compound 0.01 µM)	relative viability (Masitinib + Dasatinib; first compound 0.1 µM)	relative viability (Masitinib + Palbociclib; first compound 0.01 µM)
HCC-366	0.654	0.619	0.609	0.454	0.593	0.501	0.563	0.399	0.875	1.04	0.998	1.06	0.985	0.39	0.388	0.407	0.375	–	–	–
HCC-827	0.286	0.314	0.293	0.914	0.874	0.969	0.906	0.907	1.05	0.903	0.946	0.974	0.882	0.466	0.389	0.613	0.441	0.269	0.275	0.395
HOP-62	0.632	0.634	0.606	0.984	0.706	1.03	1.16	0.725	0.673	0.784	1.16	0.588	0.496	0.447	0.59	0.438	0.506	0.604	0.785	0.455
IA-LM	–	–	–	0.489	0.49	0.692	0.308	0.549	0.803	–	0.705	0.511	0.494	–	–	–	–	–	–	–
LC-2-ad	0.587	0.523	0.554	0.764	0.821	0.684	0.788	0.739	0.884	0.94	1.13	0.873	0.875	0.474	0.544	0.47	0.503	0.47	0.639	0.494
LCLC-97TM1	0.961	0.943	0.84	–	–	0.212	0.207	0.168	0.715	0.478	0.476	0.365	0.463	0.15	0.25	0.285	0.208	–	0.903	0.192
LCLC-103H	0.467	0.437	0.445	0.942	0.967	1.01	1.24	1.03	0.995	1.12	1.05	1.1	0.635	0.471	0.458	0.511	0.475	0.41	0.462	–
LK-2	0.243	0.306	0.263	0.581	0.778	0.729	0.413	0.427	–	–	–	–	–	0.697	0.666	0.76	0.762	0.336	0.289	0.691
NCI-H358	0.158	0.161	0.133	0.733	0.798	0.639	0.8	0.666	–	–	–	–	–	0.138	0.15	0.133	0.136	0.155	0.166	0.123
NCI-H522	–	0.887	0.879	–	–	–	–	–	–	–	–	–	–	1.07	1.31	0.849	1.13	0.818	0.823	1.03
NCI-H596	0.566	0.667	0.615	1.03	0.995	0.764	0.991	0.806	0.845	1.08	0.893	0.853	0.74	–	–	–	–	0.594	0.675	–
NCI-H1299	–	–	–	0.93	0.985	0.936	0.928	0.928	0.973	0.983	0.91	1.04	0.885	–	–	–	–	–	–	–
NCI-H1395	0.404	0.395	0.426	0.999	0.949	1.01	0.932	0.903	–	–	–	–	–	0.653	0.643	0.562	0.595	0.415	0.404	0.593
NCI-H1563	0.481	0.481	0.415	1.11	1.12	1.19	1.29	1.18	0.794	0.842	0.808	0.836	0.59	–	–	–	–	0.399	0.49	–
NCI-H1623	0.446	0.453	0.43	–	–	–	–	–	–	–	–	–	–	–	–	–	–	0.488	0.551	–
NCI-H1648	–	–	–	–	–	–	–	–	–	–	–	–	–	0.313	0.289	–	0.228	–	–	0.297
NCI-H1650	0.32	0.276	0.27	–	–	–	–	–	0.194	0.193	0.213	0.213	0.191	0.321	0.254	0.298	0.376	0.366	0.348	0.242
NCI-H1703	–	–	–	0.733	0.632	0.64	0.732	0.555	0.241	0.317	0.334	0.336	0.331	–	–	–	–	–	–	–
NCI-H1793	0.398	0.356	0.462	–	0.763	0.92	0.753	0.825	–	–	–	–	–	0.279	0.348	0.303	0.259	0.415	0.396	0.282
NCI-H1944	0.204	0.215	0.213	1.17	1.15	1.26	1.19	1.12	–	–	–	–	–	0.295	–	0.312	0.307	–	–	–
NCI-H2170	0.473	0.56	0.519	–	–	–	–	–	–	–	–	–	–	0.331	0.438	0.403	0.417	0.5	0.547	0.383
NCI-H2342	0.334	0.301	0.34	–	–	–	–	–	–	–	–	–	–	0.524	0.566	0.507	0.529	0.326	0.3	0.532
SK-MES-1	0.359	0.286	0.335	0.878	0.933	0.81	1.04	0.874	–	–	–	–	–	0.269	0.318	0.302	0.336	0.319	0.392	0.306
SW 900	0.473	0.499	0.477	–	–	–	–	–	–	–	–	–	–	0.458	0.575	0.502	0.513	0.613	0.706	0.462
